Results: ChEMBL document CHEMBL1201862, “PubChem BioAssay data set” (2004)
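96-well plates; 48 h exposure; 5 concentrations. Endpoints by linear interpolation between flanking doses. Not reached: highest tested concentration assigned. GI50 marks 50% less growth.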 The source made the active and inactive calls. Rule as the data show it: active = GI50 up to about 1.1 µM and inactive = higher.

Tests used:
Test in all cases: growth of human tumour cells (NCI), 48 h
786-0 = test system: 786-0
A498 = test system: A498
A549 = test system: A549
ACHN = test system: ACHN
BT-549 = test system: BT-549
CAKI-1 = test system: CAKI-1
CCRF-CEM = test system: CCRF-CEM
COLO 205 = test system: COLO 205
DU-145 = test system: DU-145
EKVX = test system: EKVX
HCC 2998 = test system: HCC 2998
HCT-116 = test system: HCT-116
HCT-15 = test system: HCT-15
HL-60 = test system: HL-60
HOP-62 = test system: HOP-62
HOP-92 = test system: HOP-92
HT-29 = test system: HT-29
Hs-578T = test system: Hs-578T
IGROV-1 = test system: IGROV-1
K562 = test system: K562
KM12 = test system: KM12
LOX IMVI = test system: LOX IMVI
M14 = test system: M14
MCF7 = test system: MCF7
MDA-MB-231 = test system: MDA-MB-231
MDA-MB-435 = test system: MDA-MB-435
MDA-N = test system: MDA-N
MOLT-4 = test system: MOLT-4
Malme-3M = test system: Malme-3M
NCI-H226 = test system: NCI-H226
NCI-H23 = test system: NCI-H23
NCI-H460 = test system: NCI-H460
NCI-H522 = test system: NCI-H522
NCI/ADR-RES = test system: NCI/ADR-RES
OVCAR-3 = test system: OVCAR-3
OVCAR-4 = test system: OVCAR-4
OVCAR-5 = test system: OVCAR-5
OVCAR-8 = test system: OVCAR-8
PC-3 = test system: PC-3
RPMI-8226 = test system: RPMI-8226
RXF 393 = test system: RXF 393
SF-268 = test system: SF-268
SF-295 = test system: SF-295
SF-539 = test system: SF-539
SK-MEL-28 = test system: SK-MEL-28
SK-MEL-2 = test system: SK-MEL-2
SK-MEL-5 = test system: SK-MEL-5
SK-OV-3 = test system: SK-OV-3
SN12C = test system: SN12C
SNB-19 = test system: SNB-19
SNB-75 = test system: SNB-75
SR = test system: SR
SW-620 = test system: SW-620
T47D = test system: T47D
TK-10 = test system: TK-10
U-251 = test system: U-251
UACC-257 = test system: UACC-257
UACC-62 = test system: UACC-62
UO-31 = test system: UO-31

Compound: N#CC(C#N)=Cc1c(O)ccc2ccccc12
- GI50 (786-0): 13.3 µM (inactive)
- GI50 (A498): 16 µM (inactive)
- GI50 (A549): 17.1 µM (inactive)
- GI50 (ACHN): 10.4 µM (inactive)
- GI50 (BT-549): 16.7 µM (inactive)
- GI50 (CAKI-1): 14.1 µM (inactive)
- GI50 (CCRF-CEM): 1.57 µM (inactive)
- GI50 (COLO 205): 15.2 µM (inactive)
- GI50 (DU-145): 14.2 µM (inactive)
- GI50 (EKVX): 12 µM (inactive)
- GI50 (HCC 2998): 16 µM (inactive)
- GI50 (HCT-116): 11.4 µM (inactive)
- GI50 (HCT-15): 14.1 µM
- GI50 (HL-60): 2.99 µM (inactive)
- GI50 (HOP-62): 20.6 µM (inactive)
- GI50 (HOP-92): 422 nM (active)
- GI50 (HT-29): 14.5 µM (inactive)
- GI50 (Hs-578T): 17.3 µM (inactive)
- GI50 (IGROV-1): 17.8 µM (inactive)
- GI50 (K562): 4.05 µM (inactive)
- GI50 (KM12): 17.8 µM (inactive)
- GI50 (LOX IMVI): 12.1 µM (inactive)
- GI50 (M14): 13.8 µM (inactive)
- GI50 (MCF7): 10.1 µM (inactive)
- GI50 (MDA-MB-231): 13.2 µM (inactive)
- GI50 (MDA-MB-435): 14.4 µM (inactive)
- GI50 (MDA-N): 12.7 µM (inactive)
- GI50 (MOLT-4): 2.18 µM (inactive)
- GI50 (Malme-3M): 17 µM (inactive)
- GI50 (NCI-H226): 21.3 µM (inactive)
- GI50 (NCI-H23): 12.2 µM (inactive)
- GI50 (NCI-H460): 14.7 µM (inactive)
- GI50 (NCI-H522): 9.93 µM (inactive)
- GI50 (NCI/ADR-RES): 17.3 µM (inactive)
- GI50 (OVCAR-3): 13.7 µM (inactive)
- GI50 (OVCAR-4): 18.3 µM (inactive)
- GI50 (OVCAR-5): 17 µM (inactive)
- GI50 (OVCAR-8): 16.3 µM (inactive)
- GI50 (PC-3): 17.5 µM (inactive)
- GI50 (RPMI-8226): 11.9 µM (inactive)
- GI50 (RXF 393): 15.2 µM (inactive)
- GI50 (SF-268): 11.9 µM (inactive)
- GI50 (SF-295): 15 µM (inactive)
- GI50 (SF-539): 10.6 µM (inactive)
- GI50 (SK-MEL-28): 14.5 µM (inactive)
- GI50 (SK-MEL-2): 13.7 µM (inactive)
- GI50 (SK-MEL-5): 13.3 µM (inactive)
- GI50 (SK-OV-3): 15.8 µM (inactive)
- GI50 (SN12C): 13.6 µM (inactive)
- GI50 (SNB-19): 15.4 µM (inactive)
- GI50 (SNB-75): 3.3 µM (inactive)
- GI50 (SR): 4.17 µM (inactive)
- GI50 (SW-620): 11.9 µM (inactive)
- GI50 (T47D): 13.3 µM (inactive)
- GI50 (TK-10): 18.1 µM (inactive)
- GI50 (U-251): 15.9 µM (inactive)
- GI50 (UACC-257): 16.8 µM (inactive)
- GI50 (UACC-62): 12.9 µM (inactive)
- GI50 (UO-31): 14 µM (inactive)

Compound: O=C1C(Cl)=C(N2CCN(c3ccccn3)CC2)C(=O)c2ncccc21
- GI50 (786-0): 1.63 µM (inactive)
- GI50 (A498): 11.3 µM (inactive)
- GI50 (A549): 6.56 µM (inactive)
- GI50 (ACHN): 2.33 µM (inactive)
- GI50 (BT-549): 1.79 µM (inactive)
- GI50 (CAKI-1): 2.13 µM (inactive)
- GI50 (CCRF-CEM): 0.745 µM (active)
- GI50 (COLO 205): 1.84 µM (inactive)
- GI50 (DU-145): 11.8 µM (inactive)
- GI50 (EKVX): 11.9 µM (inactive)
- GI50 (HCC 2998): 16.7 µM (inactive)
- GI50 (HCT-116): 1.74 µM (inactive)
- GI50 (HCT-15): 1.66 µM
- GI50 (HL-60): 0.668 µM (active)
- GI50 (HOP-62): 11.9 µM (inactive)
- GI50 (HOP-92): 1880 nM (inactive)
- GI50 (HT-29): 3.13 µM (inactive)
- GI50 (Hs-578T): 2.49 µM (inactive)
- GI50 (IGROV-1): 2.64 µM (inactive)
- GI50 (K562): 1.33 µM (inactive)
- GI50 (KM12): 3.53 µM (inactive)
- GI50 (LOX IMVI): 1.61 µM (inactive)
- GI50 (M14): 1.6 µM (inactive)
- GI50 (MCF7): 1.67 µM (inactive)
- GI50 (MDA-MB-231): 1.69 µM (inactive)
- GI50 (MDA-MB-435): 1.69 µM (inactive)
- GI50 (MDA-N): 1.76 µM (inactive)
- GI50 (MOLT-4): 1.38 µM (inactive)
- GI50 (Malme-3M): 1.75 µM (inactive)
- GI50 (NCI-H226): 5.68 µM (inactive)
- GI50 (NCI-H23): 1.89 µM (inactive)
- GI50 (NCI-H460): 3.05 µM (inactive)
- GI50 (NCI-H522): 1.67 µM (inactive)
- GI50 (NCI/ADR-RES): 2.33 µM (inactive)
- GI50 (OVCAR-3): 1.69 µM (inactive)
- GI50 (OVCAR-4): 1.87 µM (inactive)
- GI50 (OVCAR-5): 7.87 µM (inactive)
- GI50 (OVCAR-8): 1.32 µM (inactive)
- GI50 (PC-3): 2.8 µM (inactive)
- GI50 (RPMI-8226): 2 µM (inactive)
- GI50 (RXF 393): 2.17 µM (inactive)
- GI50 (SF-268): 2.74 µM (inactive)
- GI50 (SF-295): 5.69 µM (inactive)
- GI50 (SF-539): 2.05 µM (inactive)
- GI50 (SK-MEL-28): 2.24 µM (inactive)
- GI50 (SK-MEL-2): 1.87 µM (inactive)
- GI50 (SK-MEL-5): 2 µM (inactive)
- GI50 (SK-OV-3): 7 µM (inactive)
- GI50 (SN12C): 2.61 µM (inactive)
- GI50 (SNB-19): 12.5 µM (inactive)
- GI50 (SNB-75): 6.21 µM (inactive)
- GI50 (SR): 0.757 µM (active)
- GI50 (SW-620): 2.03 µM (inactive)
- GI50 (T47D): 1.81 µM (inactive)
- GI50 (TK-10): 3.97 µM (inactive)
- GI50 (U-251): 4.38 µM (inactive)
- GI50 (UACC-257): 1.7 µM (inactive)
- GI50 (UACC-62): 2.45 µM (inactive)
- GI50 (UO-31): 1.77 µM (inactive)
